Experiment [1] in a line: FRAP assay (ferric reducing ability). The format is biochemical. As to conditions: for FRAP value: 37° C. for 10 minutes, absorbance at 593 nm, FeSO4 calibration, ascorbic acid control at 1 mg/mL, Table 2. Here is the method: FRAP assay of the samples was conducted by slightly modifying the method of Benzie and Strain (Benzie I F F, Strain J J. 1996. The ferric reducing ability of plasma (FRAP) as a measure of “Antioxidant power”: The FRAP assay. Anal Biochem 230: 70-79). The FRAP reagent was prepared by heating 25 mL acetate buffer (300 mM, pH 3.6) at 37′ C and adding a solution of 5 mL of 10 mM 2,4,6-tris(2-pyridyl)-s-triazine (TPTZ, Sigma) and 2.5 mL of 20 mM […] in 40 mM HCl thereto. 0.03 mL of the sample (Example 1 or Example 2) and 0.09 mL of distilled water were added to 0.9 mL of the prepared FRAP reagent, reaction was proceeded at 37° C. for 10 minutes and absorbance at 593 nm was measured using a spectrophotometer (Benchmark PLUS Bio-Rad). Distilled water, instead of the sample, was used as the blank. 1 mg/mL of ascorbic acid was used as a control group. A calibration equation for FeSO4 made by repetition at different concentrations of 0.125, 0.25, 0.5, 1 and 2 mM was obtained and measurement values of the samples were converted to FRAP values by applying the measurement values thereto. All measurements were repeated three times.

Experiment [2] is described as follows: DPPH radical scavenging assay. The format is biochemical. As to conditions: for IC50 of DPPH radical scavenging activity: FIGS. 15A and 15B; for Antioxidative activity (IC50 mg/mL): DPPH radical scavenging, absorbance at 517 nm, reacted in the dark one hour, repeated three times, Table 1. Here is the method:
The antioxidant effect of synthesized taxifolin derivative was measured using a DPPH(1,1-diphenyl-2-picrylhydrazyl) radical (Blois M S. 1958. Antioxidant determination by the use of a stable free radical. Nature 25: 1199-1120). For measurement, different concentrations of 0.1 mL of the synthesized taxifolin derivatives were prepared and then mixed with 2.5 mL of ethanol. 0.5 mL of a 0.2 mM DPPH solution was added to the resulting mixture and reacted in the dark for one hour. Then, the absorbance of the reaction product was measured at 517 nm using a UV/Vis-spectrophotometer (BIO-RAD, USA). All tests were repeated three times, methanol was used as a blank sample and DPPH radical effect was calculated in accordance with the following Equation 1. DPPH radical scavenging activity was represented by IC50 (the concentration required for 50% inhibition). Scavenging effect (%)=(A−B)/A×100 [Equation 1]
where A=absorbance at 517 nm without test sample
where B=absorbance at 517 nm with test sample
A general note: Loss of DPPH colour is used to gauge radical scavenging.

The structures appear in SMILES notation.

As to `O=C1O[C@H]([C@@H](O)CO)C(O)=C1O` [Ascorbic acid, ascorbic acid], in experiment [1], the “FRAP value” turned out to be 3.7 ± 0.007 mM.
In the case of `CC1(C)SCCC(CCCCC(=O)O)S1` (stereo not drawn) [Lipoic acid (dithiol protection), 5-(2,2-dimethyl-1,3-dithian-4-yl)pentanoic acid], the “FRAP value” in experiment [1] is listed as 0.74 ± 0.006 mM. Also, the “IC50 of DPPH radical scavenging activity” value in experiment [2] is listed as “about 2,000 mg/ml”.
As to `OCCCCCC1CCSS1` (stereo not drawn) [Lipoic alcohol], the “FRAP value” in experiment [1] came to 1.24 ± 0.007 mM. In addition, the “Antioxidative activity (IC50 mg/mL)” value in experiment [2] is 3.22 ± 0.05 mg/mL.
For `O=C(O)CCCC[C@@H]1CCSS1` (racemic) [Lipoic acid], in experiment [1], the “FRAP value” was found to be 1.14 ± 0.019 mM. Besides, in experiment [2], the “Antioxidative activity (IC50 mg/mL)” value is 515.77 ± 5.41 mg/mL and the “IC50 of DPPH radical scavenging activity” value is “about 250 mg/ml”.
For the compound `O=C(CCCCC1CCSS1)Oc1cc(OC(=O)CCCCC2CCSS2)c2c(c1)OC(c1ccc(OC(=O)CCCCC3CCSS3)c(OC(=O)CCCCC3CCSS3)c1)C(OC(=O)CCCCC1CCSS1)C2=O` (stereo not drawn) [Taxifolin penta lipoate, 2-(3,4-bis(5-(1,2-dithiolan-3-yl)pentanoyloxy)phenyl)-4-oxochroman-3,5,7-triyl tris(5-(1,2-dithiolan-3-yl)pentanoate)], the “FRAP value” in experiment [1] came to 3.57 ± 0.146 mM. Also, the “FRAP value, ranking in words” value in experiment [1] (FIG. 16, comparison among the samples) is recorded as “next highest value”. Further, the “IC50 of DPPH radical scavenging activity” value in experiment [2] was 220 ± 3 µg/mL; in experiment [2] (listed as Example 2), “very low IC50”.

These data come from patent US9822104B2, “Taxifolin derivative with superior antioxidant effect and cosmetic composition containing the same” (Yeomyung Biochem Co., Ltd, priority 2015, dated 2017).
